Test results published in patent US20240067693A1, “POLYPEPTIDES AND USES THEREOF” (MEDIMMUNE LIMITED, priority 2020, published 2024).
Numbered stars: 1 amine (or outer) side, 2 acyl side, 3 side chain; on linkers, the order of the positions; unused ones are H or OH. Bridge positions count the residues as written; N and C are the ends. Square brackets hold non-standard residues; d marks the D form. Side chains are listed from the residue outwards. Peptide text beside a SMILES is read from it. * marks the point of attachment. C20 diacid = O=C(O)CCCCCCCCCCCCCCCCCCC(=O)*; C18 diacid = O=C(O)CCCCCCCCCCCCCCCCC(=O)*; γGlu = O=C(O)[C@H](CCC(=O)[*:2])N[*:1]; αMeF = C[C@](N)(Cc1ccccc1)C(=O)O; Dab = NCC[C@H](N)C(=O)O; Aib = CC(C)(N)C(=O)O

Tests used:
[1] = biological target: T1, human calcitonin receptor (hCTR) (Homo sapiens, UniProt P30988); experiment: cAMP production in 1321N1 cells with stable recombinant expression of human calcitonin receptor (hCTR); assay type: cell-based; conditions: cAMP, 1321N1 cells, assay buffer with 0.1% BSA; read-out: EC50 (pM) hCTR
T1 construct: expressed in transfected cells
T1 sequence (P30988 25-474): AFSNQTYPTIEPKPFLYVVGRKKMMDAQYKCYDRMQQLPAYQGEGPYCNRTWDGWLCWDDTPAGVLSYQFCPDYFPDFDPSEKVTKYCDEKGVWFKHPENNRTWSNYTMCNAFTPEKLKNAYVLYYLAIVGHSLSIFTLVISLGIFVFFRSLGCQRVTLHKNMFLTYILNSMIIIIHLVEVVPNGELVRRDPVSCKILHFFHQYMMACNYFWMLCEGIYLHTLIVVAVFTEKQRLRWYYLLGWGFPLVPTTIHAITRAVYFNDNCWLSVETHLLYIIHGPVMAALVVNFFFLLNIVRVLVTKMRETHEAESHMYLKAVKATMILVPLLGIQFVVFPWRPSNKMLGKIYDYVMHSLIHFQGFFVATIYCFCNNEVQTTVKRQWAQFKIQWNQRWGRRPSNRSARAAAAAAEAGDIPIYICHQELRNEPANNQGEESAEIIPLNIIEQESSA
Protocol: (§1) The functional activities of lipidated pramlintide analogue peptides, such as cAMP production, were tested in 1321N1 cell line with stable recombinant expression of human calcitonin receptor (hCTR) or human amylin receptor (calcitonin receptor co-expressed with receptor activity modifying protein, RAMP3) (hAMYR3) or HEK cells with stable recombinant expression of rat calcitonin receptor (rat CTR) or rat amylin receptor (calcitonin receptor co-expressed with receptor activity modifying protein, RAMP3) (Rat AMYR3).
(§2) Cryopreserved cell stock was thawed rapidly in a water-bath, suspended in assay buffer (0.1% BSA (Sigma # A3059) in HBSS (Sigma # H8264) with 25 mM HEPES, pH 7.4 and containing 0.5 mM IB MX (Sigma# 17018)) and spun at 240×g for 5 minutes. Cells were re-suspended in assay buffer at a batch-dependent optimized concentration (e.g. hCTR cells at 0.125×10^5 cells/mL, hAMYR3 cells at 0.125×10^5 cells/mL, rat CTR cells at 1x10^5 cells/mL, rat AMYR3 at 2×10^5 cells/mL).
(§3) The test peptide stock was prepared in DMSO and diluted in assay buffer to reach stated concentrations and transferred in duplicates into a 384-black shallow well microtitre assay plate (Corning # 3676). Cells were added to the assay plate, incubated at room temperature for 30 minutes and the cAMP level measured using cAMP dynamic 2 HTRF kit (Cisbio, Cat # 62AM4PEJ), following the two step protocol as per manufacturer's recommendations. The plates were read on an Envision (Perkin Elmer) using excitation wavelength of 320 nm and emission wavelengths of 620nm & 665 nm.
(§4) Data was transformed to % Delta F as described in the manufacturer's guidelines and analyzed as percent activation of maximal amylin or calcitonin effect by 4-parameter logistic fit to determine EC50 values. The selectivity of a peptide to hAMYR vs hCTR is defined as a ratio of EC50 values at the two receptors.

[2] = biological target: T2, human amylin receptor (calcitonin receptor co-expressed with receptor activity modifying protein, RAMP3) (hAMYR3) (Homo sapiens, UniProt O60896+P30988); experiment: cAMP production in 1321N1 cells with stable recombinant expression of human amylin receptor (hAMYR3); assay type: cell-based; conditions: for Ratio (selectivity hAMYR vs hCTR, ratio of EC50 values at the two receptors): EC50 hCTR / EC50 hAMYR3; for EC50: cAMP, 1321N1 cells, assay buffer with 0.1% BSA, read-out: EC50 (pM) hAMYR3
T2 construct: expressed in transfected cells
T2 sequence (P30988 25-474): T1 sequence (P30988 25-474)
T2 sequence (O60896 24-148 partner): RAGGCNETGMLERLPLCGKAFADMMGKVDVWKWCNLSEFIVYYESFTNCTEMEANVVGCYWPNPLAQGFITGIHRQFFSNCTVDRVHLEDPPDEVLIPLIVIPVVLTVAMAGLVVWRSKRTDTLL
Protocol: as §1, §2, §3, §4

SMILES | EC50 [1] | Ratio (selectivity hAMYR vs hCTR, ratio of EC50 values at the two receptors) [2] | EC50 [2]
CC[C@H](C)[C@H](NC(=O)[C@@H]1CCCN1C(=O)CNC(=O)[C@H](Cc1ccccc1)NC(=O)[C@H](CC(N)=O)NC(=O)C(C)(C)NC(=O)[C@H](CO)NC(=O)[C@H](CO)NC(=O)[C@H](Cc1c[nH]cn1)NC(=O)[C@@H](NC(=O)[C@H](CC(C)C)NC(=O)[C@H](Cc1ccccc1)NC(=O)[C@H](CC(N)=O)NC(=O)[C@H](C)NC(=O)[C@H](CC(C)C)NC(=O)[C@H](CCCNC(=N)N)NC(=O)[C@H](CCC(N)=O)NC(=O)[C@@H](NC(=O)[C@H](C)NC(=O)[C@@H]1CSSC[C@H](NC(=O)[C@H](CCCCN)NC(=O)[C@@H](N)CCCCNC(=O)CC[C@H](NC(=O)CCCCCCCCCCCCCCCCC(=O)O)C(=O)O)C(=O)N[C@@H](CC(N)=O)C(=O)N[C@@H]([C@@H](C)O)C(=O)N[C@@H](C)C(=O)N[C@@H]([C@@H](C)O)C(=O)N1)[C@@H](C)O)C(C)C)C(=O)N[C@@H](CC(C)C)C(=O)N1CCC[C@H]1C(=O)N1CCC[C@H]1C(=O)N[C@H](C(=O)N[C@@H](CC(N)=O)C(=O)N[C@H](C(=O)NC(C)(C)C(=O)N[C@@H](CO)C(=O)N[C@@H](CC(N)=O)C(=O)N[C@H](C(=O)N[C@@H](Cc1ccc(O)cc1)C(N)=O)[C@@H](C)O)C(C)C)[C@@H](C)O [Peptide 81, K(γE-C18diacid)K[CNTATC]ATQRLANFLVHSS(Aib)NFGPILPPTNV(Aib)SNTY-amide] (H-K([γGlu-C18 diacid])KCNTATCATQRLANFLVHSS[Aib]NFGPILPPTNV[Aib]SNTY-NH2; disulfide 3-8; N-terminus assumed) | 2760 pM | 7 | 404 pM
CC[C@H](C)[C@H](NC(=O)[C@@H]1CCCN1C(=O)CNC(=O)[C@](C)(Cc1ccccc1)NC(=O)[C@H](CC(N)=O)NC(=O)[C@H](CC(N)=O)NC(=O)[C@H](CO)NC(=O)[C@H](CO)NC(=O)[C@H](Cc1c[nH]cn1)NC(=O)[C@@H](NC(=O)[C@H](CC(C)C)NC(=O)[C@H](Cc1ccccc1)NC(=O)[C@H](CC(N)=O)NC(=O)[C@H](C)NC(=O)[C@H](CC(C)C)NC(=O)[C@H](CCCNC(=N)N)NC(=O)[C@H](CCC(N)=O)NC(=O)[C@@H](NC(=O)[C@H](C)NC(=O)[C@@H]1CSSC[C@H](NC(=O)[C@@H](N)CCCCNC(=O)CC[C@H](NC(=O)CC[C@H](NC(=O)CCCCCCCCCCCCCCCCC(=O)O)C(=O)O)C(=O)O)C(=O)N[C@@H](CC(N)=O)C(=O)N[C@@H]([C@@H](C)O)C(=O)N[C@@H](C)C(=O)N[C@@H]([C@@H](C)O)C(=O)N1)[C@@H](C)O)C(C)C)C(=O)N[C@@H](CC(C)C)C(=O)N1CCC[C@H]1C(=O)N1CCC[C@H]1C(=O)N[C@H](C(=O)N[C@@H](CCC(=O)O)C(=O)N[C@H](C(=O)NCC(=O)N[C@@H](CO)C(=O)N[C@@H](CC(N)=O)C(=O)N[C@H](C(=O)N[C@@H](Cc1ccc(O)cc1)C(N)=O)[C@@H](C)O)C(C)C)[C@@H](C)O [Peptide 23, K(γE-γE-C18diacid)[CNTATC]ATQRLANFLVHSSNN(αMePhe)GPILPPTEVGSNTY-amide] (H-K([γGlu-γGlu-C18 diacid])CNTATCATQRLANFLVHSSNN[αMeF]GPILPPTEVGSNTY-NH2; disulfide 2-7) | 589 pM | 2 | 238 pM
CC[C@H](C)[C@H](NC(=O)[C@@H]1CCCN1C(=O)CNC(=O)[C@H](Cc1ccccc1)NC(=O)[C@H](CC(N)=O)NC(=O)C(C)(C)NC(=O)[C@H](CO)NC(=O)[C@H](CO)NC(=O)[C@H](Cc1c[nH]cn1)NC(=O)[C@@H](NC(=O)[C@H](CC(C)C)NC(=O)[C@H](Cc1ccccc1)NC(=O)[C@H](CC(N)=O)NC(=O)[C@H](C)NC(=O)[C@H](CC(C)C)NC(=O)[C@H](CCCNC(=N)N)NC(=O)[C@H](CCC(N)=O)NC(=O)[C@@H](NC(=O)[C@H](C)NC(=O)[C@@H]1CSSC[C@H](NC(=O)CC[C@H](NC(=O)CCCCCCCCCCCCCCCCC(=O)O)C(=O)O)C(=O)N[C@@H](CC(N)=O)C(=O)N[C@@H]([C@@H](C)O)C(=O)N[C@@H](C)C(=O)N[C@@H]([C@@H](C)O)C(=O)N1)[C@@H](C)O)C(C)C)C(=O)N[C@@H](CC(C)C)C(=O)N1CCC[C@H]1C(=O)N1CCC[C@H]1C(=O)N[C@H](C(=O)N[C@@H](CCCNC(=N)N)C(=O)N[C@H](C(=O)NCC(=O)N[C@@H](CO)C(=O)N[C@@H](CC(N)=O)C(=O)N[C@H](C(=O)N[C@@H](Cc1ccc(O)cc1)C(N)=O)[C@@H](C)O)C(C)C)[C@@H](C)O [Peptide 68, (C18diacid-γE-[CNTATC]ATQRLANFLVHSS(Aib)NFGPILPPTRVGSNTY-amide] ({C18 diacid-γGlu}-CNTATCATQRLANFLVHSS[Aib]NFGPILPPTRVGSNTY-NH2; disulfide 1-6) | 1770 pM | 9 | 192 pM
CC[C@H](C)[C@H](NC(=O)[C@@H]1CCCN1C(=O)CNC(=O)[C@H](Cc1ccccc1)NC(=O)[C@H](CC(N)=O)NC(=O)C(C)(C)NC(=O)[C@H](CO)NC(=O)[C@H](CO)NC(=O)[C@H](Cc1c[nH]cn1)NC(=O)C(C)(C)NC(=O)[C@H](CC(C)C)NC(=O)[C@H](Cc1ccccc1)NC(=O)[C@H](CC(N)=O)NC(=O)[C@H](C)NC(=O)[C@H](CC(C)C)NC(=O)[C@H](CCCNC(=N)N)NC(=O)[C@H](CCC(N)=O)NC(=O)[C@@H](NC(=O)[C@H](C)NC(=O)[C@@H]1CSSC[C@H](NC(=O)[C@H](CCCCN)NC(=O)[C@@H](N)CCCCNC(=O)CC[C@H](NC(=O)CCCCCCCCCCCCCCCCC(=O)O)C(=O)O)C(=O)N[C@@H](CC(N)=O)C(=O)N[C@@H]([C@@H](C)O)C(=O)N[C@@H](C)C(=O)N[C@@H]([C@@H](C)O)C(=O)N1)[C@@H](C)O)C(=O)N[C@@H](CC(C)C)C(=O)N1CCC[C@H]1C(=O)N1CCC[C@H]1C(=O)N[C@H](C(=O)N[C@@H](CC(N)=O)C(=O)N[C@H](C(=O)NCC(=O)N[C@@H](CO)C(=O)N[C@@H](CC(N)=O)C(=O)N[C@H](C(=O)N1CCC[C@H]1C(N)=O)[C@@H](C)O)C(C)C)[C@@H](C)O [Peptide 87, K(γE-C18diacid)K[CNTATC]ATQRLANFL(Aib)HSS(Aib)NFGPILPPTNVGSNTP-amide] (H-K([γGlu-C18 diacid])KCNTATCATQRLANFL[Aib]HSS[Aib]NFGPILPPTNVGSNTP-NH2; disulfide 3-8; N-terminus assumed) | 74 pM | 1 | 71 pM
CC[C@H](C)[C@H](NC(=O)[C@H](C)NC(=O)[C@@H]1CCCN1C(=O)[C@H](Cc1ccccc1)NC(=O)[C@H](CC(N)=O)NC(=O)C(C)(C)NC(=O)[C@H](CO)NC(=O)[C@H](CO)NC(=O)[C@H](Cc1c[nH]cn1)NC(=O)[C@@H](NC(=O)[C@H](CC(C)C)NC(=O)[C@H](Cc1ccccc1)NC(=O)[C@H](CC(N)=O)NC(=O)[C@H](C)NC(=O)[C@H](CC(C)C)NC(=O)[C@H](CCCNC(=N)N)NC(=O)[C@H](CCC(N)=O)NC(=O)[C@@H](NC(=O)[C@H](C)NC(=O)[C@@H]1CSSC[C@H](NC(=O)[C@@H](N)CCCCNC(=O)CC[C@H](NC(=O)CC[C@H](NC(=O)CCCCCCCCCCCCCCCCCCC(=O)O)C(=O)O)C(=O)O)C(=O)N[C@@H](CC(N)=O)C(=O)N[C@@H]([C@@H](C)O)C(=O)N[C@@H](C)C(=O)N[C@@H]([C@@H](C)O)C(=O)N1)[C@@H](C)O)C(C)C)C(=O)N[C@@H](CC(C)C)C(=O)N[C@@H](CO)C(=O)N1CCC[C@H]1C(=O)N[C@H](C(=O)N[C@@H](CCN)C(=O)N[C@H](C(=O)NCC(=O)N[C@@H](CO)C(=O)N[C@@H](CC(N)=O)C(=O)N[C@H](C(=O)N[C@@H](Cc1ccc(O)cc1)C(N)=O)[C@@H](C)O)C(C)C)[C@@H](C)O [Peptide 123, K(γE-γE-C20diacid)[CNTATC]ATQRLANFLVHSS(Aib)NFPAILSPT(Dab)VGSNTY-amide] (H-K([γGlu-γGlu-C20 diacid])CNTATCATQRLANFLVHSS[Aib]NFPAILSPT[Dab]VGSNTY-NH2; disulfide 2-7; N-terminus assumed) | 4790 pM | 5 | 873 pM
